What all share (format): biochemical
Assay [1] has as its target T1, CDK2/CycA (Homo sapiens, UniProt P24941).
T1 construct: purchased Proqinase
The assay can be described thus: CDK2 Enzymatic Activity Assay (Lance Kinase Activity Assay, FRET). The following applies: for IC50: Table 5B, class symbols per IC50 [nM] ranges of b581, read-out: CDK2: Selectivity of CDK7 inhibition over CDK2 inhibition. As to the method: This protocol describes how the Lance Kinase Activity Assay was performed to determine IC50 values of compounds of general formula (I) against CDK/Cyclin complexes. The principle behind this enzymatic assay is based upon the phosphorylation of the Ulight-Peptide Substrat. It is detected by using a specific EU-labeled anti-phospho peptide antibody.
Binding of an inhibitor to the kinase prevents phosphorylation of the Ulight-MBP Substrat, resulting in a loss of FRET.
CDK2 Enzymatic Activity Assay
The compounds of general formula (I) exemplary summarized in Table 1 were diluted from a 10 mM DMSO stock solution 1:10 in a total volume of 15 μl DMSO. This compound predilution was then serial diluted 1:3 over 8 steps in DMSO and briefly spun down. Each compound solution was now diluted 1:20 in Enzymatic Buffer (HEPES: 50 mM, pH: 7.5; MgCl2: 10 mM; EGTA: 1 mM; DTT: 2 mM; Tween-20: 0.01%), mixed thoroughly and spun down.
For positive controls, 2 μl of DMSO working solution were mixed with 6 μl CDK2/CycA/substrate working solution and 2 μl ATP working solution. Positive and negative controls were calculated from at least 8 different wells. The 384 well plates were mixed in a Teleshaker plate mixer (Beckman Coulter, Brea, Calif., USA) at 2000 rpm for 40 sec, and incubated for 1 h at room temperature before addition of 10 μl LANCE Detection Buffer (EDTA: […]; Eu-Anti-P-MBP: 4 nM) per well. Plates were mixed in a Teleshaker plate mixer (Beckman Coulter, Brea, Calif., USA) at 2000 rpm for 40 sec, followed by incubation with Detection Buffer for 1 h, and reading. […] IC50 values were determined from the sigmoidal dose response curves with the software Quattro Workflow (Quattro GmbH, Munich, Germany).

Assay [2] deals with CDK7/CycH/Mat1 (Homo sapiens, UniProt P50613). In words: CDK7 Enzymatic Activity Assay (Lance Kinase Activity Assay, FRET). The method, boiled down: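 Ulight-MBP peptide phosphorylation by CDK7/CycH/Mat1 in HEPES 50 mM pH 7.5, MgCl2, EGTA, DTT, Tween-20; 1 h at room temperature, then EDTA stop with Eu-anti-phospho-MBP antibody for 1 h and TR-FRET read. Compounds in 8-point 1:3 DMSO series; IC50 from sigmoidal dose-response fit.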
Sequence of CDK7/CycH/Mat1 (P50613 whole entry): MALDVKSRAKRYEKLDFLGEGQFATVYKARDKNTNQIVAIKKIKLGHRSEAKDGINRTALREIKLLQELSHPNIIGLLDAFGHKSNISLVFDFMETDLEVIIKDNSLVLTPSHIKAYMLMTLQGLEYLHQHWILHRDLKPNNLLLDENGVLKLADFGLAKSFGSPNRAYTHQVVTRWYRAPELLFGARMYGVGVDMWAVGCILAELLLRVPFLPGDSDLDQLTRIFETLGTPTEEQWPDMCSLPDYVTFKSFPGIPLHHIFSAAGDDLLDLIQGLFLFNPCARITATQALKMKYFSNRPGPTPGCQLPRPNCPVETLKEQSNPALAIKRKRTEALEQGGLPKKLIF

Assay [3] deals with CDK9/Cyclin T1 (Homo sapiens, UniProt P50750). The assay can be described thus: CDK9 Enzymatic Activity Assay (Lance Kinase Activity Assay, FRET). Conditions: for IC50: Table 5B, class symbols per IC50 [nM] ranges of b581, read-out: CDK9: Selectivity of CDK7 inhibition over CDK9 inhibition. The essentials:
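CDK9/cyclin T1 phosphorylation of a ULight-MBP peptide was run for 1 h at room temperature in pH 7.5 HEPES buffer with MgCl2, EGTA, DTT and Tween-20. It was followed by 1 h with Eu-anti-phospho-MBP antibody (4 nM) in EDTA detection buffer. TR-FRET loss gave IC50 from 8-point, 1:3 sigmoidal dose-response curves.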

The mark [4] stands for this setting: CDK7/CycH/Mat1, 25 μM ATP final, class ranges, read-out: CDK7: IC50 [nM] for CDK7 inhibition.

Where two headings read alike, the source gives them in different places.

Sequence of CDK9/Cyclin T1 (P50750 whole entry): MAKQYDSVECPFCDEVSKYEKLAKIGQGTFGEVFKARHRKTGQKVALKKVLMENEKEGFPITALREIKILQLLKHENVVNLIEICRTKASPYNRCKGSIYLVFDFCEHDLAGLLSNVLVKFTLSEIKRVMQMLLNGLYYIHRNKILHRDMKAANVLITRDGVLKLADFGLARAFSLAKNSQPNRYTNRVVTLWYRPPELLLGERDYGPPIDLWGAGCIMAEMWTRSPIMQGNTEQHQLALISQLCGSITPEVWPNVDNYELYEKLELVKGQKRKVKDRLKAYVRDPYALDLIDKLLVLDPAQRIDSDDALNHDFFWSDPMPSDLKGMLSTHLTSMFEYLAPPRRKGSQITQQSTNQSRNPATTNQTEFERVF
Sequence of CDK9/Cyclin T1 (O60563 whole entry partner): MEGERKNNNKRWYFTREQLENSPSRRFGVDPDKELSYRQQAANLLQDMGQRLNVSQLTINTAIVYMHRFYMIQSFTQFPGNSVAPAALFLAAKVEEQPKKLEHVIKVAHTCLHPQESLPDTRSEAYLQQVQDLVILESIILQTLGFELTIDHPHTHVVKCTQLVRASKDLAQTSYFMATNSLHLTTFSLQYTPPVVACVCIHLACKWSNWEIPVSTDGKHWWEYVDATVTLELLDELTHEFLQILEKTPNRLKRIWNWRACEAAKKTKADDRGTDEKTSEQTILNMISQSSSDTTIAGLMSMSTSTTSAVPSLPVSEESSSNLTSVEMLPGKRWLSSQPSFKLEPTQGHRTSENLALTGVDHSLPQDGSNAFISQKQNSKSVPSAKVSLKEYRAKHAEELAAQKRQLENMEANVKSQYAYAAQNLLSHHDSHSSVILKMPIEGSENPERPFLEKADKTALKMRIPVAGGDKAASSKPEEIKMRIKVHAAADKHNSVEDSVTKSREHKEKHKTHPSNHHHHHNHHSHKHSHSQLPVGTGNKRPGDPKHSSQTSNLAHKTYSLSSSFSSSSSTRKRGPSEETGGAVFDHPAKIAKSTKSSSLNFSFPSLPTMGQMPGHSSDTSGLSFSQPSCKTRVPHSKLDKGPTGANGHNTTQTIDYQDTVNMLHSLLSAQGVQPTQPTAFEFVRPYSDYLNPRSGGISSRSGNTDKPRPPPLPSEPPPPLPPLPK

For `CC(C)c1cnn2c(NCc3ccccc3-n3cccn3)nc(OC3COC4(CCNCC4)C3)nc12` (stereo not drawn) [(VII-05), 2-(1-oxa-8-azaspiro[4.5]decan-3-yloxy)-N-(2-(1H-pyrazol-1-yl)benzyl)-8-isopropylpyrazolo[1,5-a][1,3,5]triazin-4-amine], the IC50 is over 2500 nM in assay [1], under 5 nM in assay [2] (setting [4]) and over 2500 nM in assay [3].

As to `CC(C)c1cnn2c(NC(C)c3ccccc3-n3cccn3)nc(O[C@@H]3CCCNC3)nc12` (stereo partly drawn) [(VII-06), N-(1-(2-(1H-pyrazol-1-yl)phenyl)ethyl)-8-isopropyl-2-((R)-piperidin-3-yloxy)pyrazolo[1,5-a][1,3,5]triazin-4-amine], the IC50 in assay [1] was over 2500 nM; in assay [2] (setting [4]) it was under 5 nM; in assay [3], 50 to 500 nM.

With `CC(C)c1cnn2c(NCc3ccccc3-c3ccccc3)nc(O[C@@H]3CCCNC3)nc12` [(VII-07), (R)-N-([1,1′-biphenyl]-2-ylmethyl)-8-isopropyl-2-(piperidin-3-yloxy)pyrazolo[1,5-a][1,3,5]triazin-4-amine], the IC50 in assay [1] is 500 to 2500 nM; in assay [2] (setting [4]) it was under 5 nM; in assay [3], 50 to 500 nM.

On to `CC(C)c1cnn2c(NCc3ccccc3-c3ccccc3)nc(O[C@@H]3CCNC3)nc12` [(VII-08), (R)-N-([1,1′-biphenyl]-2-ylmethyl)-8-isopropyl-2-(pyrrolidin-3-yloxy)pyrazolo[1,5-a][1,3,5]triazin-4-amine], for which the IC50 in assay [1] was 500 to 2500 nM; in assay [2] (setting [4]) it was 5 to 10 nM; in assay [3] it was 500 to 2500 nM.

As to `CC(C)c1cnn2c(NCc3ccccc3-c3ccccc3)nc(OC3CCNCC3)nc12` [(VII-09), N-([1,1′-biphenyl]-2-ylmethyl)-8-isopropyl-2-(piperidin-4-yloxy)pyrazolo[1,5-a][1,3,5]triazin-4-amine], the IC50 is over 2500 nM in assay [1], under 5 nM in assay [2] (setting [4]) and over 2500 nM in assay [3].

As to `COc1ccccc1[C@H](C)Nc1nc(O[C@@H]2CCNC2)nc2c(C(C)C)cnn12` [(VII-11), 8-isopropyl-N-((S)-1-(2-methoxyphenyl)ethyl)-2-((R)-pyrrolidin-3-yloxy)pyrazolo[1,5-a][1,3,5]triazin-4-amine], the IC50 in assay [1] is 500 to 2500 nM; in assay [2] (setting [4]) it was 5 to 10 nM; in assay [3], 500 to 2500 nM.

Consider `CC(C)c1cnn2c(NCc3ccccc3-c3cccs3)nc(O[C@@H]3CCCNC3)nc12` [(VII-12), (R)-8-isopropyl-2-(piperidin-3-yloxy)-N-(2-(thiophen-2-yl)benzyl)pyrazolo[1,5-a][1,3,5]triazin-4-amine], for which the IC50 in assay [1] is under 50 nM; in assay [2] (setting [4]) it was under 5 nM; in assay [3], 50 to 500 nM.

Regarding `CC(C)c1cnn2c(NCc3ccccc3-c3cccs3)nc(O[C@@H]3CCNC3)nc12` [(VII-13), (R)-8-isopropyl-2-(pyrrolidin-3-yloxy)-N-(2-(thiophen-2-yl)benzyl)pyrazolo[1,5-a][1,3,5]triazin-4-amine], the IC50 in assay [1] is 50 to 500 nM; in assay [2] (setting [4]), under 5 nM; in assay [3] it was 500 to 2500 nM.

Consider `CC(C)c1cnn2c(NCc3ccccc3-c3cccs3)nc(OC3CCNCC3)nc12` [(VII-14), 8-isopropyl-2-(piperidin-4-yloxy)-N-(2-(thiophen-2-yl)benzyl)pyrazolo[1,5-a][1,3,5]triazin-4-amine], for which the IC50 in assay [1] was 50 to 500 nM; in assay [2] (setting [4]), under 5 nM; in assay [3] it was 500 to 2500 nM.

In the case of `CC(C)Oc1ccccc1CNc1nc(O[C@@H]2CCNC2)nc2c(C(C)C)cnn12` [(VII-16), (R)-N-(2-isopropoxybenzyl)-8-isopropyl-2-(pyrrolidin-3-yloxy)pyrazolo[1,5-a][1,3,5]triazin-4-amine], the IC50 in assay [1] is 500 to 2500 nM; in assay [2] (setting [4]) it was under 5 nM; in assay [3], over 2500 nM.

On to `CC(C)Oc1ccccc1CNc1nc(O[C@@H]2CCCNC2)nc2c(C(C)C)cnn12` [(VII-18), (R)-N-(2-isopropoxybenzyl)-8-isopropyl-2-(piperidin-3-yloxy)pyrazolo[1,5-a][1,3,5]triazin-4-amine], for which the IC50 is 50 to 500 nM in assay [1], under 5 nM in assay [2] (setting [4]) and 500 to 2500 nM in assay [3].

Take `CC(C)c1cnn2c(NCc3ccccc3-n3cncn3)nc(O[C@@H]3CCNC3)nc12` [(VII-21), (R)-N-(2-(1H-1,2,4-triazol-1-yl)benzyl)-8-isopropyl-2-(pyrrolidin-3-yloxy)pyrazolo[1,5-a][1,3,5]triazin-4-amine]: the IC50 in assay [1] was under 50 nM; in assay [2] (setting [4]) it was under 5 nM; in assay [3], 500 to 2500 nM.

Consider `CC(C)c1cnn2c(NCc3ccccc3-n3cncn3)nc(OC3CCNCC3)nc12` [(VII-22), N-(2-(1H-1,2,4-triazol-1-yl)benzyl)-8-isopropyl-2-(piperidin-4-yloxy)pyrazolo[1,5-a][1,3,5]triazin-4-amine], for which the figures for the IC50 in assay [1], in assay [2] (setting [4]) and in assay [3] were 50 to 500 nM, under 5 nM and 500 to 2500 nM, respectively.

Turning to `CC(C)c1cnn2c(NCc3ccccc3-n3ccnc3)nc(O[C@@H]3CCCNC3)nc12` [(VII-26), (R)-N-(2-(1H-imidazol-1-yl)benzyl)-8-isopropyl-2-(piperidin-3-yloxy)pyrazolo[1,5-a][1,3,5]triazin-4-amine], the IC50 is 50 to 500 nM in assay [1], under 5 nM in assay [2] (setting [4]) and 50 to 500 nM in assay [3].

As for `CC(C)c1cnn2c(NCc3ccccc3-n3ccnc3)nc(O[C@@H]3CCNC3)nc12` [(VII-27), (R)-N-(2-(1H-imidazol-1-yl)benzyl)-8-isopropyl-2-(pyrrolidin-3-yloxy)pyrazolo[1,5-a][1,3,5]triazin-4-amine], the IC50 in assay [1] was 50 to 500 nM; in assay [2] (setting [4]), under 5 nM; in assay [3], 50 to 500 nM.

For `CC(C)c1cnn2c(NCc3ccccc3-c3nnnn3C)nc(O[C@@H]3CCCNC3)nc12` [(VII-29), (R)-8-isopropyl-N-(2-(1-methyl-1H-tetrazol-5-yl)benzyl)-2-(piperidin-3-yloxy)pyrazolo[1,5-a][1,3,5]triazin-4-amine], the IC50 in assay [1] was 50 to 500 nM; in assay [2] (setting [4]), under 5 nM; in assay [2] (Table 6, read-out: IC50 CDK7), under 5 nM; in assay [3] it was over 2500 nM. Moreover, the “Selectivity CDK7 over CDK2” value in assay [1] (Table 6) is given as 394 fold. The “Selectivity CDK7 over CDK9” value in assay [3] (Table 6) came to 3255 fold.

With `CC(C)c1cnn2c(NCc3cccc4c3ccc[n+]4[O-])nc(O[C@@H]3CCCNC3)nc12` [(VII-30), (R)-5-(((8-isopropyl-2-(piperidin-3-yloxy)pyrazolo[1,5-a][1,3,5]triazin-4-yl)amino)methyl)quinoline 1-oxide], the IC50 was 500 to 2500 nM in assay [1], under 5 nM in assay [2] (setting [4]) and under 50 nM in assay [3].

On to `CC(C)c1cnn2c(NCc3cccc4ccncc34)nc(O[C@@H]3CCCNC3)nc12` [(VII-31), (R)-8-isopropyl-N-(isoquinolin-8-ylmethyl)-2-(piperidin-3-yloxy)pyrazolo[1,5-a][1,3,5]triazin-4-amine], for which the values for the IC50 in assay [1], in assay [2] (setting [4]) and in assay [3] were 50 to 500 nM, under 5 nM and under 50 nM, respectively.

Consider `CC(C)c1cnn2c(NCc3cccc4cc[n+]([O-])cc34)nc(O[C@@H]3CCCNC3)nc12` [(VII-32), (R)-8-(((8-isopropyl-2-(piperidin-3-yloxy)pyrazolo[1,5-a][1,3,5]triazin-4-yl)amino)methyl)isoquinoline 2-oxide], for which the IC50 in assay [1] is 50 to 500 nM; in assay [2] (setting [4]), under 5 nM; in assay [3], 50 to 500 nM.

Source of the values: US9567345B2, “Pharmaceutically active pyrazolo-triazine derivatives” (LEAD DISCOVERY CENTER GMBH, priority 2012, dated 2017).
